For one assay, the target named is sGC α1/β1 heterodimer (Homo sapiens (Human), UniProt Q02108+Q02153). Briefly: Cell-based sGC functional assay (cyclic GMP assay for sGC activator: CASA assay). Set-up: % Activation: concentration or dose not given beside the values. As to conditions: CHO-K1/sGC cells; for EC50: inflection point, 4P fit, read-out: IP; for Emax: CHO-K1, activity expressed as percentage of compound A (standard), read-out: % Activation; for % Activation: activity expressed as percentage of compound A (standard). Summed up: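 CHO-K1 cells stably expressing sGC α1/β1 were pre-incubated with or without 1 μM DETA-NO (30 min, 25 °C), then exposed to compounds for 1 hr at 37 °C with 0.5 mM IBMX. Intracellular cGMP was read by HTRF and expressed as a percentage of a reference heme-dependent activator's maximum.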

Assay [1] has as its target human recombinant sGC enzyme (Homo sapiens (Human), UniProt Q02108+Q02153). Briefly: Size Exclusion Chromatography (SEC) competition binding assay using [3H] Ex-77B as the radioligand. The following applies: [3H] Ex-77B radioligand, 24 hours at 37° C. The method, boiled down: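 Recombinant human sGC binding measured by competition against tritiated Ex-77B radioligand, with non-specific binding defined by 1 μM unlabeled Ex-77B.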

The structures appear in SMILES notation.

The term Ki denotes a measure of affinity in units of concentration, obtained from inhibition or displacement.

With `CC1(c2ccc(CCc3nn[nH]n3)cn2)C(=O)Nc2nc(-c3nn(Cc4ccccc4F)c4ccccc34)nc(N)c21` (single isomer, unassigned) [Example 246A, 5-{5-[2-(2H-tetrazol-5-yl)ethyl]pyridin-2-yl}-4-amino-2-[1-(2-fluoro-benzyl)-1H-indazol-3-yl]-5-methyl-5,7-dihydro-6H-pyrrolo[2,3-d] pyrimidin-6-one], the EC50 on sGC α1/β1 heterodimer was found to be 7120 nM. In addition, the inhibition constant (Ki) in assay [1] was 0.22 nM.

For the compound `C[C@@]1(c2ccc(CCC(=O)O)cc2)C(=O)Nc2nc(-c3nn(Cc4ccccc4F)c4cc(Cl)c(O)cc34)nc(N)c21` [Example 110B, (S)-3-(4-{4-Amino-2-[6-chloro-1-(2-fluorobenzyl)-5-hydroxy-1H-indazol-3-yl]-5-methyl-6-oxo-6,7-dihydro-5H-pyrrolo[2,3-d]pyrimidin-5-yl}phenyl)propanoic acid], on sGC α1/β1 heterodimer, the Emax was 78% and the EC50 was found to be 1130 nM. In assay [1], the Ki was 0.361 nM.

`CC1(c2cccc(C(=O)O)c2)C(=O)Nc2nc(-c3nn(Cc4ccccc4F)c4cc(Cl)ccc34)nc(N)c21` (centres unmarked) [Example 169B, 3-{4-amino-2-[6-chloro-1-(2-fluorobenzyl)-1H-indazol-3-yl]-5-methyl-6-oxo-6,7-dihydro-5H-pyrrolo[2,3-d]pyrimidin-5-yl} benzoic acid]: on sGC α1/β1 heterodimer, the Emax is 90.3% and the EC50 was determined as 159 nM. In addition, the inhibitory constant (Ki) in assay [1] was 0.104 nM.

In the case of `C[C@@]1(c2ccc(CCC(=O)NCc3nn[nH]n3)cc2)C(=O)Nc2nc(-c3nn(Cc4ccccc4F)c4ncccc34)nc(N)c21` [Example 108B, (S)—N-((2H-Tetrazol-5-yl)methyl)-3-(4-{4-amino-2-[1-(2-fluorobenzyl)-1H-pyrazolo[3,4-b]pyridin-3-yl]-5-methyl-6-oxo-6,7-dihydro-5H-pyrrolo[2,3-d]pyrimidin-5-yl}phenyl)propanamide], at sGC α1/β1 heterodimer, the Emax stood at 122% and the EC50 was determined as 842 nM. In addition, the inhibition constant Ki in assay [1] was found to be 0.056 nM.

Regarding `CC1(c2nc(-c3ccc(C(=O)O)cc3)co2)C(=O)Nc2nc(-c3nn(Cc4ccccc4F)c4ncccc34)nc(N)c21` (centres unmarked) [Example 146A, 4-(2-{4-amino-2-[1-(2-fluorobenzyl)-1H-pyrazolo[3,4-b]pyridin-3-yl]-5-methyl-6-oxo-6,7-dihydro-5H-pyrrolo [2,3-d]pyrimidin-5-yl}-1,3-oxazol-4-yl)benzoic acid], on sGC α1/β1 heterodimer, the Emax was 82.1% and the EC50 worked out at 94 nM. Besides, the Ki in assay [1] is 0.062 nM.

For the compound `Cc1cccc(Cn2nc(-c3nc(N)c4c(n3)NC(=O)[C@@]4(C)c3ccc(CCC(=O)O)cc3)c3ccc(Cl)cc32)c1` [Example 66B, (S)-3-(4-{4-amino-2-[6-chloro-1-(3-methylbenzyl)-1H-indazol-3-yl]-5-methyl-6-oxo-6,7-dihydro-5H-pyrrolo[2,3-d]pyrimidin-5-yl}phenyl)propanoic acid], on sGC α1/β1 heterodimer, the Emax is 107% and the EC50 worked out at 238 nM. Besides, the Ki in assay [1] stood at 0.495 nM.

In the case of `COCCn1nc(-c2nc(N)c3c(n2)NC(=O)C3(C)c2cccc(CC(C)(C)C(=O)O)c2)c2ccc(Cl)cc21` (centres unmarked) [Example 39B, 3-(3-{4-amino-2-[6-chloro-1-(2-methoxyethyl)-1H-indazol-3-yl]-5-methyl-6-oxo-6,7-dihydro-5H-pyrrolo[2,3-d]pyrimidin-5-yl}phenyl)-2,2-dimethylpropanoic acid], on sGC α1/β1 heterodimer, the Emax is 82% and the EC50 stood at 1090 nM. Also, the Ki in assay [1] turned out to be 3.65 nM.

On to `CC(C)(Cc1coc(C2(C)C(=O)Nc3nc(-c4nn(Cc5c(F)cccc5F)c5cc(Cl)ccc45)nc(N)c32)n1)C(=O)O` (centres unmarked) [Example 182A, 3-(2-{4-amino-2-[6-chloro-1-(2,6-difluorobenzyl)-1H-indazol-3-yl]-5-methyl-6-oxo-6,7-dihydro-5H-pyrrolo[2,3-d]pyrimidin-5-yl}-1,3-oxazol-4-yl)-2,2-dimethyl-propanoic acid], for which, on sGC α1/β1 heterodimer, the Emax came out at 92% and the EC50 came to 238 nM. In addition, in assay [1], the inhibitory constant (Ki) is 0.124 nM.

`CC(C)(Cc1coc(C2(C)C(=O)Nc3nc(-c4nn(CC5CCCCO5)c5cc(F)ccc45)nc(N)c32)n1)C(=O)O` (single isomer, unassigned) [Example 134AA, 3-{2-[4-amino-2-{6-fluoro-1-[tetrahydro-2H-pyran-2-ylmethyl]-1H-indazol-3-yl}-5-methyl-6-oxo-6,7-dihydro-5H-pyrrolo[2,3-d]pyrimidin-5-yl]-1,3-oxazol-4-yl}-2,2-dimethylpropanoic acid]: on sGC α1/β1 heterodimer, the Emax was determined as 104% and the EC50 worked out at 807 nM. For the same compound, the inhibition constant (Ki) in assay [1] was 0.32 nM.

In the case of `CC(C)(Cc1coc(C2(C)C(=O)Nc3nc(-c4nn(Cc5ncccc5F)c5cc(Cl)ccc45)nc(N)c32)n1)C(=O)O` (centres unmarked) [Example 184A, 3-{2-[4-amino-2-{6-chloro-1-[(3-fluoropyridin-2-yl)methyl]-1H-indazol-3-yl}-5-methyl-6-oxo-6,7-dihydro-5H-pyrrolo[2,3-d]pyrimidin-5-yl]-1,3-oxazol-4-yl}-2,2-dimethyl-propanoic acid], on sGC α1/β1 heterodimer, the Emax turned out to be 97.7% and the EC50 worked out at 230 nM. Moreover, the inhibitory constant (Ki) in assay [1] came to 0.092 nM.

As to `CC1(c2cccc(C(=O)O)c2)C(=O)Nc2nc(-c3nn(Cc4ccccc4F)c4cc(F)ccc34)nc(N)c21` (centres unmarked) [Example 191B, 3-{4-amino-2-[6-fluoro-1-(2-fluorobenzyl)-1H-indazol-3-yl]-5-methyl-6-oxo-6,7-dihydro-5H-pyrrolo[2,3-d]pyrimidin-5-yl} benzoic acid], on sGC α1/β1 heterodimer, the Emax came out at 114% and the EC50 came to 133 nM. In addition, in assay [1], the Ki stood at 0.109 nM.

For the compound `CC1(N2CCC(CCC(=O)O)C2)C(=O)Nc2nc(-c3nn(Cc4ccccc4F)c4cc(Cl)ccc34)nc(N)c21` (single isomer, unassigned) [Example 261D, 3-[1-{4-Amino-2-[6-chloro-1-(2-fluorobenzyl)-1H-indazol-3-yl]-5-methyl-6-oxo-6,7-dihydro-5H-pyrrolo[2,3-d]pyrimidin-5-yl}pyrrolidin-3-yl]propanoic acid], at sGC α1/β1 heterodimer, the “% Activation” value was 103.8% and the EC50 was 444 nM. The Ki in assay [1] is 0.187 nM.

Regarding `Cc1cccc(Cn2nc(-c3nc(N)c4c(n3)NC(=O)C4(C)c3cnn(CC(C)(C)C(=O)O)c3)c3ccc(F)cc32)c1F` (centres unmarked) [Example 211A, 3-(4-{4-amino-2-[6-fluoro-1-(2-fluoro-3-methyl-benzyl)-1H-indazol-3-yl]-5-methyl-6-oxo-6,7-dihydro-5H-pyrrolo[2,3-d]pyrimidin-5-yl}-1H-pyrazol-1-yl)-2,2-dimethyl-propanoic acid], on sGC α1/β1 heterodimer, the Emax was 96.2% and the EC50 was found to be 1180 nM. Moreover, in assay [1], the Ki stood at 0.258 nM.

For `Cc1oc(C2(C)C(=O)Nc3nc(-c4nn(Cc5ccccc5F)c5cc(Cl)ccc45)nc(N)c32)nc1CC(C)(C)C(=O)O` (centres unmarked) [Example 170B, 3-(2-{4-amino-2-[6-chloro-1-(2 fluorobenzyl)-1H-indazol-3-yl]-5-methyl-6-oxo-6,7-dihydro-5H-pyrrolo[2,3-d]pyrimidin-5-yl}-5-methyl-1,3-oxazol-4-yl)-2,2-dimethylpropanoic acid], at sGC α1/β1 heterodimer, the Emax is 130% and the EC50 was 655 nM. The inhibition constant (Ki) in assay [1] was determined as 0.118 nM.

As to `CC(C)(Cc1coc(C2(C)C(=O)Nc3nc(-c4nn(CC5CCCC5)c5ncccc45)nc(N)c32)n1)C(=O)O` (centres unmarked) [Example 154A, 3-(2-{4-amino-2-[1-(cyclopentyl-methyl)-1H-pyrazolo[3,4-b]pyridin-3-yl]-5-methyl-6-oxo-6,7-dihydro-5H-pyrrolo[2,3-d]pyrimidin-5-yl}-1,3-oxazol-4-yl)-2,2-dimethyl-propanoic acid], on sGC α1/β1 heterodimer, the Emax is 104% and the EC50 is 577 nM. In addition, the inhibitory constant (Ki) in assay [1] came to 0.091 nM.

With `CC1(c2nc3cc(C(=O)O)ccc3s2)C(=O)Nc2nc(-c3nn(Cc4ccccc4F)c4cc(Cl)ccc34)nc(N)c21` (centres unmarked) [Example 130A, 2-{4-amino-2-[6-chloro-1-(2-fluorobenzyl)-1H-indazol-3-yl]-5-methyl-6-oxo-6,7-dihydro-5H-pyrrolo[2,3-d]pyrimidin-5-yl}-1,3-benzothiazole-5-carboxylic acid], on sGC α1/β1 heterodimer, the Emax worked out at 116% and the EC50 is 1230 nM. Moreover, the Ki in assay [1] worked out at 0.184 nM.

Take `C[C@@]1(c2ccc(CCC(=O)O)cc2)C(=O)Nc2nc(-c3nn(Cc4ccc(F)cc4)c4ccccc34)nc(N)c21` (single isomer, unassigned) [Example 221B]: on sGC α1/β1 heterodimer, the Emax stood at 92.1% and the EC50 was 150 nM. For the same compound, the inhibitory constant (Ki) in assay [1] was 0.163 nM.

In the case of `CC1CCC(Cn2nc(-c3nc(N)c4c(n3)NC(=O)C4(C)c3nc(CC(C)(C)C(=O)O)co3)c3ccccc32)CC1` (single isomer, unassigned) [Example 231AB, 3-{2-[4-amino-5-methyl-2-{1-[4-methylcyclo-hexylmethyl]-1H-indazol-3-yl}-6-oxo-6,7-dihydro-5H-pyrrolo[2,3-d]pyrimidin-5-yl]-1,3-oxazol-4-yl}-2,2-dimethyl-propanoic acid], at sGC α1/β1 heterodimer, the “% Activation” value stood at 127.9% and the EC50 came out at 529 nM. In assay [1], the Ki was found to be 0.087 nM.

On to `Cc1cccc(Cn2nc(-c3nc(N)c4c(n3)NC(=O)[C@@]4(C)c3nc(CC(C)(C)C(=O)O)cs3)c3ccc(Cl)cc32)c1F` [Example 188A, (S)-3-(2-{4-amino-2-[6-chloro-1-(2-fluoro-3-methyl-benzyl)-1H-indazol-3-yl]-5-methyl-6-oxo-6,7-dihydro-5H-pyrrolo[2,3-d]pyrimidin-5-yl}-1,3-thiazol-4-yl)-2,2-dimethyl-propanoic acid], for which, on sGC α1/β1 heterodimer, the Emax stood at 124% and the EC50 was 109 nM. In addition, the Ki in assay [1] was found to be 0.1 nM.
